Data: PMC12040169 (PLOS Biology, 2025)

Experiment: in vitro
Conditions: human, hela cells, % viability

## O=C(NCCN1CCCCC1)C1CC(=O)N(Cc2ccco2)C1 (stereo not shown) [CBK304877]
  viability at 28.5 h, 10 µM: 89.8%

## CCOC(=O)c1ccoc1CN1CCCC1c1ccsc1 (stereo not shown) [CBK304878]
  viability at 28.5 h, 10 µM: 86.7%

## Cc1c(C(C)NCC(O)COc2ccc(C#N)cc2)cnn1C (stereo not shown) [CBK304881]
  viability at 28.5 h, 10 µM: 97.5%

## Cc1nc(S(=O)(=O)CC2CCCO2)n(CC(C)C)c1C (stereo not shown) [CBK304882]
  viability at 28.5 h, 10 µM: 116%

## Cc1ccc(OCC(=O)Nc2ncn(Cc3cccnc3)n2)cc1 [CBK304888]
  viability at 28.5 h, 10 µM: 85%

## CCc1nc2ccccc2n1CC(=O)N(CCC#N)Cc1cccnc1 [CBK304892]
  viability at 28.5 h, 10 µM: 87.7%

## O=C1NCCN1C1CCN(c2ncnc3ccccc23)CC1 [CBK304896]
  viability at 28.5 h, 10 µM: 83.1%

## COc1cc(OC)cc(C(=O)Nc2ncccc2OCCCC#N)c1 [CBK304899]
  viability at 28.5 h, 10 µM: 88.3%

## O=C(CN1CCC(NC(=O)c2cccs2)CC1)NCc1ccccc1F [CBK304901]
  viability at 28.5 h, 10 µM: 97.2%

## Cc1cc(C)n(CC2CN(CC(=O)NCc3cccs3)CCO2)n1 (stereo not shown) [CBK304902]
  viability at 28.5 h, 10 µM: 109%

## CCCn1cc(NC(=O)C2(c3ccccc3)CCOCC2)ccc1=O [CBK304905]
  viability at 28.5 h, 10 µM: 90.1%

## Cn1ncc2c(=O)n(Cc3nc(C(C)(C)C)no3)cnc21 [CBK304906]
  viability at 28.5 h, 10 µM: 87.9%

## CC(C)Oc1ncc(C(=O)N(CCC#N)Cc2ccco2)cc1Cl [CBK304908]
  viability at 28.5 h, 10 µM: 91.6%

## Cc1nnc2ccc(N3CCN(Cc4cscn4)CC3)nn12 [CBK304910]
  viability at 28.5 h, 10 µM: 101%

## Cn1cnnc1C1CCN(C(=O)CC2OCCc3sccc32)CC1 (stereo not shown) [CBK304912]
  viability at 28.5 h, 10 µM: 90.2%

## CN(C)CCn1c(=O)oc2ccc(NC(=O)C3CCCO3)cc21 (stereo not shown) [CBK304913]
  viability at 28.5 h, 10 µM: 93.9%

## CCc1[nH]ncc1C(=O)N1CCN(c2nccc(OC)n2)CC1 [CBK304915]
  viability at 28.5 h, 10 µM: 86.4%

## CCc1noc(C)c1C(=O)N1CCN(C(C#N)C2CCCCC2)CC1 (stereo not shown) [CBK304916]
  viability at 28.5 h, 10 µM: 88.8%

## CCCN1CCC(NC(=O)Cn2c(C3CC3)nc3ccccc32)CC1 [CBK304917]
  viability at 28.5 h, 10 µM: 89.2%

## CCN(CC)C(=O)Cc1ccc(NC(=O)NCc2cnn(C)c2)cc1 [CBK304918]
  viability at 28.5 h, 10 µM: 111%

## Cn1ccc(CN2CCOC(c3nccs3)C2)cc1=O (stereo not shown) [CBK304921]
  viability at 28.5 h, 10 µM: 88.8%

## N#CCCN(Cc1ccco1)C(=O)c1ccc(NC2CC2)nc1 [CBK304922]
  viability at 28.5 h, 10 µM: 88.2%

## Cc1c(C(=O)N2CCn3c(C)nnc3C2)sc2cccc(F)c12 [CBK304923]
  viability at 28.5 h, 10 µM: 87.5%

## Cn1ncc2c(=O)[nH]c(N3CCN(c4cc(C#N)ccn4)CC3)nc21 [CBK304924]
  viability at 28.5 h, 10 µM: 92.4%

## COC(=O)c1ccc(N2CCN(C(C)c3nnc(C)o3)C(C)C2)cc1 (stereo not shown) [CBK304926]
  viability at 28.5 h, 10 µM: 108%

## Cc1cc(C)n(CC(=O)N2CCOC(c3ccccc3Cl)C2)n1 (stereo not shown) [CBK304927]
  viability at 28.5 h, 10 µM: 91.9%

## Cc1cc(C)c2c(OCC(=O)N(C)CC(=O)NC(C)C)nn(C)c2n1 [CBK304931]
  viability at 28.5 h, 10 µM: 84.1%

## Cn1nc(C(C)(C)C)cc1NC(=O)CN1CCc2cncnc2C1 [CBK304934]
  viability at 28.5 h, 10 µM: 106%

## COc1ccc(CC(=O)N(C)Cc2nnc3ccccn23)cc1 [CBK304935]
  viability at 28.5 h, 10 µM: 87.8%

## Cc1ccc(Cl)c(OC(C)C(=O)N2CCCC(C(N)=O)C2)c1 (stereo not shown) [CBK304936]
  viability at 28.5 h, 10 µM: 99.3%

## CC(C)Cn1ncc2cc(C(=O)Nc3ccnn3C(C)C)cnc21 [CBK304938]
  viability at 28.5 h, 10 µM: 79%

## CC(C)NC(=O)CN(CCO)Cc1cc(Br)ccc1F [CBK304944]
  viability at 28.5 h, 10 µM: 90.7%

## Cn1c(=O)c2c(ncn2Cc2noc(-c3ccoc3)n2)n(C)c1=O [CBK304945]
  viability at 28.5 h, 10 µM: 86.3%

## CN(C(=O)C1CC1)C1CCN(c2ncnc3ccccc23)CC1 [CBK304946]
  viability at 28.5 h, 10 µM: 80%

## Cc1nc(-c2cccnc2)[nH]c(=O)c1CC(=O)N1CCN(C)CC1C (stereo not shown) [CBK304950]
  viability at 28.5 h, 10 µM: 100%

## O=C(Nc1ncn(CC(=O)N2CCCCCC2)n1)c1cccs1 [CBK304953]
  viability at 28.5 h, 10 µM: 78.1%

## Cc1cccc(C(=O)Nc2ncn(CC(=O)N3CCCCCC3)n2)n1 [CBK304954]
  viability at 28.5 h, 10 µM: 86.6%

## Cc1nnc2n1CCN(C(=O)CC1OCCc3sccc31)C2 (stereo not shown) [CBK304956]
  viability at 28.5 h, 10 µM: 94%

## COc1ccc(CCC(=O)Nc2ncccc2OCCCC#N)cc1 [CBK304957]
  viability at 28.5 h, 10 µM: 105%

## CCn1c(CN2CCC(c3noc(C)n3)CC2)nc2c(F)cccc21 [CBK304960]
  viability at 28.5 h, 10 µM: 91.1%

## Cc1nn(C)c(C)c1NC(=O)COc1ccc2c(c1)CCCC2=O [CBK304963]
  viability at 28.5 h, 10 µM: 98.5%

## Cc1ccc(C)c(CC(=O)N(C)C2CCN(C3CCOCC3)CC2)c1 [CBK304964]
  viability at 28.5 h, 10 µM: 87.4%

## CCCC(C)N(C)C(=O)CCc1c(C)nc(-c2cccnc2)[nH]c1=O (stereo not shown) [CBK304965]
  viability at 28.5 h, 10 µM: 106%

## Cc1cccn2cc(CC(=O)OCC(=O)NC(C)(C)C)nc12 [CBK304966]
  viability at 28.5 h, 10 µM: 110%

## COc1ccc(C)cc1C1(CNC(=O)C2CCC(=O)N2)CCOCC1 (stereo not shown) [CBK304967]
  viability at 28.5 h, 10 µM: 94.8%

## c1cnn(CC2CCCN2c2ncnc3sccc23)c1 (stereo not shown) [CBK304968]
  viability at 28.5 h, 10 µM: 92.5%

## c1cnn(CC2CCCCN2c2ncnc3sccc23)c1 (stereo not shown) [CBK304969]
  viability at 28.5 h, 10 µM: 92.1%

## CC(O)CN1CCN(c2nc(-c3ccncc3)nc3c2CCC3)CC1 (stereo not shown) [CBK304971]
  viability at 28.5 h, 10 µM: 90.3%

## NC(=O)N1CCC(C(=O)N2CC3(CCCC3)c3c(F)cccc32)CC1 [CBK304973]
  viability at 28.5 h, 10 µM: 108%

## O=C(Nc1ncn(CC(=O)N2CCCCCC2)n1)c1ccsc1 [CBK304974]
  viability at 28.5 h, 10 µM: 99.4%

## CC1CCc2c(sc3ncnc(OCC(=O)N(C)CCC#N)c23)C1 (stereo not shown) [CBK304976]
  viability at 28.5 h, 10 µM: 89.8%

## COC(=O)C1CCN(Cc2nc3sc4c(c3c(=O)[nH]2)CCC(C)C4)CC1 (stereo not shown) [CBK304978]
  viability at 28.5 h, 10 µM: 99.2%

## CC1CCc2c(sc3ncnc(OCC(=O)N4CCCCC4)c23)C1 (stereo not shown) [CBK304979]
  viability at 28.5 h, 10 µM: 87.5%

## CC(C)CNS(=O)(=O)c1ccc(N2CCCC2=O)cc1 [CBK304981]
  viability at 28.5 h, 10 µM: 106%

## COC(=O)c1cc(C#N)c(=O)n(CC(O)COc2cccc(Br)c2)c1 (stereo not shown) [CBK304984]
  viability at 28.5 h, 10 µM: 80.5%

## Cc1nc2nc(N)nn2c(C)c1CCC(=O)NCc1ccccc1 [CBK304986]
  viability at 28.5 h, 10 µM: 95.7%

## Cc1ccccc1CNC(=O)CCc1c(C)nc2nc(N)nn2c1C [CBK304987]
  viability at 28.5 h, 10 µM: 108%

## COCCN(C(=O)CSc1ccc2ccccc2n1)C1CCS(=O)(=O)C1 (stereo not shown) [CBK304988]
  viability at 28.5 h, 10 µM: 96.4%

## Cc1nc2nc(N)nn2c(C)c1CCC(=O)NCCc1ccccc1 [CBK304989]
  viability at 28.5 h, 10 µM: 89.5%

## COC(=O)c1cc(C#N)c(=O)n(CC(O)COc2ccccc2)c1 (stereo not shown) [CBK304991]
  viability at 28.5 h, 10 µM: 99.3%

## Cc1ccccc1CCNC(=O)CCc1c(C)nc2nc(N)nn2c1C [CBK304994]
  viability at 28.5 h, 10 µM: 93.6%

## CCN1CCC(NC(=O)CSc2nc3ccccc3n2CC(C)C)CC1 [CBK304995]
  viability at 28.5 h, 10 µM: 106%

## Cc1ccnc2nc(C(=O)OC(C)C(=O)NC3CC3)nn12 (stereo not shown) [CBK304998]
  viability at 28.5 h, 10 µM: 92.5%

## CC1c2ccsc2CCN1C(=O)COc1ccc(Br)cc1 (stereo not shown) [CBK304999]
  viability at 28.5 h, 10 µM: 98%

## CC1CC(C)CN(C(=O)c2cc(S(=O)(=O)N3CCOCC3)ccc2Cl)C1 (stereo not shown) [CBK305000]
  viability at 28.5 h, 10 µM: 87%

## Cc1nc(N2CCOCC2)[nH]c(=O)c1CCC(=O)Nc1ccccc1F [CBK305003]
  viability at 28.5 h, 10 µM: 97.7%

## O=C(c1cc(S(=O)(=O)NCc2ccco2)c(Cl)cc1Cl)N1CCC1 [CBK305004]
  viability at 28.5 h, 10 µM: 98%
